{
  "source": "patent US20260344670A1",
  "about": "“BIXLOZONE MIXTURES WITH PETHOXAMID” (FMC CORPORATION, priority 2022, published 2026)",
  "format_in_all_cases": "in vivo",
  "key": {"[1]": {"system": "Digitaria sanguinalis (DIGSA)", "assay": "pre-emergence control of DIGSA in corn (efficacy, Colby synergy)", "conditions": "bixlozone 375, pethoxamid 1200, mixtures 375 + 1200 g/ha", "from_the_text": "(§1) [formula] • where ppm=milligrams of active ingredient (=a.i.) per liter of spray mixture X=% action by component A using p ppm of active ingredient Y=% action by component B using q ppm of active ingredient. If the ratio R defined as the action actually observed (O) divided by the expected action (E) is >1 then the action of the combination is superadditive, i.e. there is a synergistic effect. For a more detailed description of the Colby formula, see Colby, S. R. “Calculating Synergistic and Antagonistic Responses of Herbicide Combination”, Weeds, Vol. 15, pages 20-22; 1967; see also Limpel et al., Proc. NEWCC 16:48-53 (1962).\n(§2) As used herein, rating timings correspond to the following: A1=weed assessment at BBCH 11-12; A2=4 weeks after the application; A3=when ZEAMX crop reaches BBCH 18 (row closure); and A4=BBCH 51-59 of the ZEAMX crop.\n(§3) The herbicidal compounds bixlozone and pethoxamid were applied in a variety of forms and at a variety of amounts, application rates, and normalities. Efficacy of the herbicidal compositions was evaluated with reference to a scale of 0% to 100% in comparison with untreated control plots. 0 means no damage to the harmful plants and 100 means complete destruction of the harmful plants. Plants per square meter is indicated by “pl/m^2”, and grams per hectare is indicated by “g/ha”. […]"}, "Stellaria media (STEME)": {"system": "Stellaria media (STEME)", "assay": "pre-emergence control of STEME in corn (efficacy, Colby synergy)", "conditions": "bixlozone 375, pethoxamid 800, tank mix 375 + 800, premix 375 + 775 g/ha", "from_the_text": "as §1, §2, §3"}, "[2]": {"system": "Matricaria chamomilla (MATCH)", "assay": "pre-emergence control of MATCH in corn (efficacy, Colby synergy)", "from_the_text": "as §1, §2\n(§4) The herbicidal compounds bixlozone and pethoxamid were applied in a variety of forms and at a variety of amounts, application rates, and normalities. Efficacy of the herbicidal compositions was evaluated with reference to a scale of 0% to 100% in comparison with untreated control plots. 0 means no damage to the harmful plants and 100 means complete destruction of the harmful plants. Plants per square meter is indicated by “pl/m^2”, and grams per hectare is indicated by “g/ha”. The acronym “EC” means emulsifiable concentrate (a liquid, homogenous formulation to be applied as an emulsion after dilution with water); “SC” means suspension concentrate (a stable suspension of active ingredient(s) with water as the fluid); “ZC” refers to a mixed formulation of CS and SC (a stable suspension of capsules and active ingredient(s) in a fluid, normally intended for dilution with water before use).\n(§5) Various forms, compositions, and mixtures of bixlozone and pethoxamid were applied to corn before emergence. […] There was equivalent efficacy for fixed rate of bixlozone combined with pethoxamid: 1200 or 900 g/ha. Efficacy was reduced when bixlozone rate decreased from 250 to 150 g/ha. […]"}, "[3]": {"system": "Sorghum halepense (SORHA)", "assay": "pre-emergence control of SORHA in corn (efficacy, Colby synergy)", "from_the_text": "as §1, §2, §3"}, "[4]": {"system": "Xanthium strumarium (XANST)", "assay": "pre-emergence control of XANST in corn (efficacy, Colby synergy)", "conditions": "bixlozone 375, pethoxamid 300, mixtures 375 + 300 g/ha", "from_the_text": "as §1, §2, §3"}, "AMBEL": {"system": "AMBEL", "assay": "pre-emergence control of AMBEL in corn (efficacy)", "conditions": "bixlozone 375, pethoxamid 1200, mixtures 375 + 1200 g/ha", "from_the_text": "(§6) Various forms, compositions, and mixtures of bixlozone and pethoxamid were applied to corn before emergence. […] Mixtures of bixlozone with 1200 g/ha pethoxamid improved weed spectrum on a range of broad leaf weeds (e.g., CHEAL, MATSS, and POLSS) and grasses (e.g., ECHCG, DIGSA, and SETVI). Combinations of bixlozone and pethoxamid in pre-emergence applications were very safe with no clear pethoxamid rate effect.\n(§7) Table 8. Efficacies of various forms and mixtures of bixlozone and pethoxamid after pre-emergence application on corn. Weeds were present at ≥5 pl/m^2. Concentrations are shown in parentheses in g/ha."}, "[5]": {"system": "Acalypha virginica (ACCVI)", "assay": "pre-emergence control of ACCVI in corn (Colby synergy)", "from_the_text": "as §1, §3"}, "CAGSE": {"system": "CAGSE", "assay": "pre-emergence control of CAGSE in corn (efficacy, Colby synergy)", "from_the_text": "as §6, §7\nTable 11. Synergy data of various forms and mixtures of bixlozone and pethoxamid after pre-emergence application on corn at the crop row closure stage (BBCH 18). The notations in parentheses show the forms and amounts (in g/ha) of applied bixlozone and pethoxamid, respectively. Where “tank” is noted, the mix is a tank mix. Where “premix” is noted, the mix is a premix. Where there is no notation, the value shown is the Colby calculation for the expected value from separate mixtures.\nVarious forms, compositions, and mixtures of bixlozone and pethoxamid were applied to corn before emergence. […] Mixtures of bixlozone with 300 g/ha pethoxamid improved weed spectrum on a range of broad leaf weeds (e.g., SOLNI and ABUTH). […]"}, "[6]": {"system": "Chenopodium hybridum (CHEHY)", "assay": "pre-emergence control of CHEHY in corn (efficacy, Colby synergy)", "conditions": "bixlozone 375, pethoxamid 300, mixtures 375 + 300 g/ha", "from_the_text": "as §1, §2, §3"}, "POLHY": {"system": "POLHY", "assay": "pre-emergence control of POLHY in corn (efficacy)", "conditions": "bixlozone 375, pethoxamid 800, tank mix 375 + 800, premix 375 + 775 g/ha", "from_the_text": "(§8) Various forms, compositions, and mixtures of bixlozone and pethoxamid were applied to corn before emergence. […] Mixtures of bixlozone with 800 g/ha pethoxamid improved weed spectrum on a range of broad leaf weeds (e.g., CHEAL and ABUTH) and grasses (e.g., ECHCG, DIGSA, and SETVI). Combinations of bixlozone and pethoxamid in pre-emergence applications were very safe with no clear pethoxamid rate effect.\n(§9) Table 12. Efficacies of various forms and mixtures of bixlozone and pethoxamid after pre-emergence application on corn. Weeds were present at ≥5 pl/m^2. Concentrations are shown in parentheses in g/ha."}, "[7]": {"system": "Amaranthus retroflexus (AMARE)", "assay": "pre-emergence control of AMARE in corn (efficacy, Colby synergy)", "from_the_text": "as §1, §2, §3"}, "[8]": {"system": "Abutilon theophrasti (ABUTH)", "assay": "pre-emergence control of ABUTH in corn (efficacy, Colby synergy)", "from_the_text": "as §1, §2, §4, §5"}, "[9]": {"system": "Lolium multiflorum (LOLMU)", "assay": "pre-emergence control of LOLMU in corn (Colby synergy)", "conditions": "bixlozone 375, pethoxamid 1200, mixtures 375 + 1200 g/ha", "from_the_text": "as §1, §3"}, "[10]": {"system": "Portulaca oleracea (POROL)", "assay": "pre-emergence control of POROL in corn (Colby synergy)", "from_the_text": "as §1, §4, §6"}, "[11]": {"system": "Capsella bursa-pastoris (CAPBP)", "assay": "pre-emergence control of CAPBP in corn (efficacy, Colby synergy)", "conditions": "bixlozone 375, pethoxamid 800, tank mix 375 + 800, premix 375 + 775 g/ha", "from_the_text": "as §1, §2, §3"}, "[12]": {"system": "Echinochloa crus-galli (ECHCG)", "assay": "pre-emergence control of ECHCG in corn (efficacy, Colby synergy)", "from_the_text": "as §1, §2, §3"}, "[13]": {"system": "Potentilla tridentate (PTLTR)", "assay": "pre-emergence control of PTLTR in corn (Colby synergy)", "conditions": "bixlozone 375, pethoxamid 1200, mixtures 375 + 1200 g/ha", "from_the_text": "as §1, §3"}, "Solanum nigrum (SOLNI)": {"system": "Solanum nigrum (SOLNI)", "assay": "pre-emergence control of SOLNI in corn (efficacy, Colby synergy)", "from_the_text": "as §1, §2, §4, §5"}, "Lamium purpureum (LAMPU)": {"system": "Lamium purpureum (LAMPU)", "assay": "pre-emergence control of LAMPU in corn (efficacy, Colby synergy)", "conditions": "bixlozone 375, pethoxamid 300, mixtures 375 + 300 g/ha", "from_the_text": "as §1, §2, §3"}, "CHEPO": {"system": "CHEPO", "assay": "pre-emergence control of CHEPO in corn (efficacy, Colby synergy)", "conditions": "bixlozone 375, pethoxamid 800, tank mix 375 + 800, premix 375 + 775 g/ha", "from_the_text": "Table 10. Synergy data of various forms and mixtures of bixlozone and pethoxamid after pre-emergence application on corn at the crop row closure stage (BBCH 18). […] The notations in parentheses show the forms and amounts (in g/ha) of applied bixlozone and pethoxamid, respectively. Where “tank” is noted, the mix is a tank mix. Where “premix” is noted, the mix is a premix. Where there is no notation, the value shown is the Colby calculation for the expected value from separate mixtures.\nas §8, §9"}, "[14]": {"conditions": "bixlozone 375, pethoxamid 300, mixtures 375 + 300 g/ha"}, "[15]": {"conditions": "bixlozone 375, pethoxamid 800, tank mix 375 + 800, premix 375 + 775 g/ha"}, "[16]": {"conditions": "bixlozone 375, pethoxamid 1200, mixtures 375 + 1200 g/ha"}},
  "data": [
    {"molecule": "CCOCCN(C(=O)CCl)C(=C(C)C)c1ccccc1", "note": "[pethoxamid]", "values": [
      {"measurement": "Efficacy", "setting": "[1]", "result": 82},
      {"measurement": "Efficacy", "setting": "Stellaria media (STEME)", "result": 91},
      {"measurement": "Efficacy", "setting": "[2]; [14]", "result": 90},
      {"measurement": "Efficacy", "setting": "[2]; [15]", "result": 100},
      {"measurement": "Efficacy", "setting": "[2]; [16]", "result": 77.5},
      {"measurement": "Efficacy", "setting": "[3]; [15]", "result": 80},
      {"measurement": "Efficacy", "setting": "[3]; [16]", "result": 27.5},
      {"measurement": "Efficacy", "setting": "[4]", "result": 35},
      {"measurement": "Efficacy", "setting": "AMBEL", "result": 7.5},
      {"measurement": "Efficacy", "setting": "[5]; [14]", "result": 65},
      {"measurement": "Efficacy", "setting": "[5]; [16]", "result": 46.3},
      {"measurement": "Efficacy", "setting": "CAGSE; [14]", "result": 10},
      {"measurement": "Efficacy", "setting": "CAGSE; [16]", "result": 0},
      {"measurement": "Efficacy", "setting": "[6]", "result": 0},
      {"measurement": "Efficacy", "setting": "POLHY", "result": 92.5},
      {"measurement": "Efficacy", "setting": "[7]; [15]", "result": 50.4},
      {"measurement": "Efficacy", "setting": "[7]; [16]", "result": 57.5},
      {"measurement": "Efficacy", "setting": "[8]; [14]", "result": 42.5},
      {"measurement": "Efficacy", "setting": "[8]; [15]", "result": 38.9},
      {"measurement": "Efficacy", "setting": "[8]; [16]", "result": 56.3},
      {"measurement": "Efficacy", "setting": "[9]", "result": 78.8},
      {"measurement": "Efficacy", "setting": "[10]; [14]", "result": 48.8},
      {"measurement": "Efficacy", "setting": "[10]; [15]", "result": 98.8},
      {"measurement": "Efficacy", "setting": "[10]; [16]", "result": 94.6},
      {"measurement": "Efficacy", "setting": "[11]", "result": 99.3},
      {"measurement": "Efficacy", "setting": "[12]; [14]", "result": 48.4},
      {"measurement": "Efficacy", "setting": "[12]; [16]", "result": 85.5},
      {"measurement": "Efficacy", "setting": "[13]", "result": 0},
      {"measurement": "Efficacy", "setting": "Solanum nigrum (SOLNI); [14]", "result": 28.8},
      {"measurement": "Efficacy", "setting": "Solanum nigrum (SOLNI); [15]", "result": 52.5},
      {"measurement": "Efficacy", "setting": "Solanum nigrum (SOLNI); [16]", "result": 76.5},
      {"measurement": "Efficacy", "setting": "Lamium purpureum (LAMPU)", "result": 62.5},
      {"measurement": "Efficacy", "setting": "CHEPO", "result": 30}
    ]}
  ]
}
